Measurements: ChEMBL document CHEMBL1150494, “Inhibitory effect on HT-1080 tumor cell invasion in vitro using 9-(2-hydroxyethyl)adenine 2-phosphates” (1997)

What was measured:
HT-1080 [1] = experiment: In vitro inhibitory activity against HT1080 tumor cell invasion using Matrigel (MG) at a concentration of 100 uM; type: functional, Homo sapiens
[2] = target: Matrix metalloproteinase-9 (Homo sapiens) (UniProt P14780); experiment: Inhibition of collagen IV degradation by matrix metalloprotease-9 at 100 uM
Sequence of Matrix metalloproteinase-9 (Homo sapiens) (P14780 whole entry): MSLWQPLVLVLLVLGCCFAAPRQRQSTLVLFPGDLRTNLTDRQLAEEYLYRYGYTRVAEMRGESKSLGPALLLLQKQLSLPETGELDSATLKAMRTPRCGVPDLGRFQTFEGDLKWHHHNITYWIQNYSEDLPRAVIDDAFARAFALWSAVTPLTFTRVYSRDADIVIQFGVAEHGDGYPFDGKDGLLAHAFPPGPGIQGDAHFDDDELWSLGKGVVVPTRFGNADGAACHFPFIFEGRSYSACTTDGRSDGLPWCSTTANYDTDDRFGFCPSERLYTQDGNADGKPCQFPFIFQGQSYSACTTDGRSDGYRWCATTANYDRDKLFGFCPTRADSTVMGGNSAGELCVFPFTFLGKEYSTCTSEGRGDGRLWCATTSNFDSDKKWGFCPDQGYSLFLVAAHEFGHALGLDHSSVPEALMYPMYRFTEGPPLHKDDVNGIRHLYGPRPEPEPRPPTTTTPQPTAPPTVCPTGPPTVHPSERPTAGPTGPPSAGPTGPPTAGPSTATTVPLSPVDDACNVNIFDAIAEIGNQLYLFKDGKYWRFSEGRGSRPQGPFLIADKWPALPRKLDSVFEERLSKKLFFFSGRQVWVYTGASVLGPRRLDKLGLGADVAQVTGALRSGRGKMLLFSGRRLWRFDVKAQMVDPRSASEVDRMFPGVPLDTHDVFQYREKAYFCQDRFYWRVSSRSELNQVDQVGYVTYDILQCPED

[3] = target: Matrix metalloproteinase-9 (Homo sapiens) (UniProt P14780); experiment: Inhibition of collagen IV degradation by matrix metalloprotease-9 at 10 uM
HT-1080 [4] = experiment: In vitro inhibitory activity against HT1080 tumor cell invasion using Matrigel (MG) at a concentration of 10 uM; type: functional, Homo sapiens

SMILES	Inhibition ratio (HT-1080 [1]) [%]	Inhibition ratio [2] [%]	Inhibition ratio [3] [%]	Inhibition ratio (HT-1080 [4]) [%]
Nc1ncnc2c1nc(Br)n2CCOP(=O)(O)O	~41	41	23	~23
O=P(O)(O)OCCn1cnc2c(Cl)ncnc21	~12	12		
CNc1ncnc2c1ncn2CCOP(=O)(O)O	~54	55	46	~46
Nc1ncnc2c1ncn2CCO	~50	18	2	~2
Nc1ncnc2c1ncn2CCOP(=O)(O)OP(=O)(O)OP(=O)(O)O	~36	69	53	~35
Nc1ncnc2c1ncn2CCOP(=O)(O)O	53	57	32	46
